Experiments:
[1] = test system: Escherichia coli ARLG-2829 (NDM-5, OXA-1); assay: MIC shift, liquid microdilution, meropenem fixed at 4 μg/mL; assay type: cell-based; conditions: compound + meropenem fixed at 4 μg/mL; E. coli ARLG-2829 (urine clinical isolate), NDM-5, OXA-1
Method: (§1) The test compound was tested for minimum inhibitory concentration against three strains of Klebsiella pneumoniae ATCC BAA-1705 (KPC-2), ATCC BAA-2470 (NDM-1), and ARLG-1196 (CTM-1 group, SHV, NDM, TEM), and one strain of Escherichia coli ARLG-2829 (NDM-5, OXA-1). According to the requirements of the Institute of Clinical And Laboratory Standard (CLSI), the minimum inhibitory concentration (MIC) of each drug combination was determined by liquid microdilution method under the premise of fixing the concentration of meropenem at 4 μg/mL.
(§2) Preparation of compound mother plate: On the day of the experiment, the compound to be tested (the final concentration was 0.3125 to 20 μg/mL) and meropenem (the final concentration ranged from 1 to 64 μg/mL) were dissolved in a corresponding solvent (sterile ddH2O or DMSO) to form 100× mother liquors with the highest test concentration, and the compound to be tested and meropenem were then subjected to 2-fold series gradient dilution in a V-bottom 96-well plate to obtain 100× working solutions with the final concentration.
(§3) Preparation of inoculation solution: Fresh bacterial clones were picked from an overnight Mueller Hinton II Agar medium (MHA, Cat. No. 211438, BD BBLTM) plate, suspended in sterilized physiological saline, and adjusted to a concentration of 1×10^8 CFU/mL, and the suspension was further diluted to 5-10^5 CFU/mL with Cation-Adjusted Mueller Hinton II Broth (MHB, Catalog #212332, BD BBLTM).
(§4) Detection of minimum inhibitory concentration (MIC): 1 μL of the compound to be tested and the meropenem working solution were transferred to the corresponding wells to be tested in a round-bottomed 96-well plate (Catalog #3788, Corning), and 98 μL of the inoculation solution was added to the round-bottomed 96-well plate containing drugs, which was an MIC test plate; and after the plate was inverted and cultured at 37° C. for 20-24 h, the MIC value was read, and the minimum inhibitory concentration for inhibiting bacterial growth was defined as MIC.

[2] = test system: Klebsiella pneumoniae ATCC BAA-2470 (NDM-1); assay: as above; assay type: cell-based; conditions: compound + meropenem fixed at 4 μg/mL; K. pneumoniae ATCC BAA-2470, NDM-1
Method: as §1, §2, §3, §4

[3] = test system: Klebsiella pneumoniae ARLG-1196 (CTM-1 group, SHV, NDM, TEM); assay: as above; assay type: cell-based; conditions: compound + meropenem fixed at 4 μg/mL; K. pneumoniae ARLG-1196, CTM-1 and isoforms thereof, SHV, NDM, TEM
Method: as §1, §2, §3, §4

[4] = test system: Klebsiella pneumoniae ATCC BAA-1705 (KPC-2); assay: as above; assay type: cell-based; conditions: compound + meropenem fixed at 4 μg/mL; K. pneumoniae ATCC BAA-1705, KPC-2
Method: as §1, §2, §3, §4

[5] = test system: Klebsiella pneumoniae ATCC BAA-1705; assay: Mouse lung infection model, bacterial load; assay type: in vivo, CD-1 female mice; conditions: endpoint 12 h
Method: (§5) 36 CD-1 female mice were divided into 12 cages with 3 […] in each cage. The day of infection was denoted as day 0.
(§6) Immunosuppressant cyclophosphamide at 150 mg/kg was injected intraperitoneally on day −4 and immunosuppressant cyclophosphamide at 100 mg/kg was injected intraperitoneally on day −1 to induce immunodeficient mice.
On day −1, the strain Klebsiella pneumoniae ATCC BAA-1705 was resuscitated on an MHA plate. Resuscitated colonies were picked and dissolved in sterile physiological saline to prepare a bacterial solution with a concentration of 2.75E+08 CFU/mL for lung infection by nasal drip. The initial time of infection was denoted as 0 h, and 50 μL of the bacterial solution was injected into each mouse by nasal drip at 0 h, that is, the inoculation amount was 1.38E+07 CFU/mouse. 2 h after infection, dosing was performed according to the experimental scheme. The specific experimental scheme was as follows (see Table 6): • (1) 2 h after infection: for the 1st cage of mice, at the endpoint, lung tissue was taken and placed in 10 mL of sterile physiological saline, the tissue was homogenized by a homogenizer, and the homogenate was diluted in a gradient and spotted in a plate, with two replicates for each mouse. • (2) 2 h after infection: the 2nd to 12th cages were respectively treated at 10 mL/kg by volume according to the body weight of the mice, the 2nd cage of mice were given a vehicle by intravenous injection every 2 h, and the endpoint was 12 h; the 3rd cage of mice were given 100 mg/kg of meropenem by intravenous injection every 2 h, and the endpoint was 12 h; the 4th cage of mice were given 100 mg/kg of meropenem and 20 mg/kg of QPX7728 by intravenous injection every 2 h, and the endpoint was 12 h; the 5th cage of mice were given 100 mg/kg of meropenem and 100 mg/kg of compound 15 by intravenous injection every 2 h, and the endpoint was 12 h; the 6th cage of mice were given 100 mg/kg of meropenem and 20 mg/kg of compound 15 by intravenous injection every 2 h, and the endpoint was 12 h; the 7th cage of mice were given 100 mg/kg of meropenem and 4 mg/kg of compound 15 by intravenous injection every 2 h, and the endpoint was 12 h; the 8th cage of mice were given 100 mg/kg of cefepime by intravenous injection every 2 h, and the endpoint was 12 h; the 9th cage of mice were given 100 mg/kg of cefepime and 20 mg/kg of QPX7728 by intravenous injection every 2 h, and the endpoint was 12 h; the 10th cage of mice were given 100 mg/kg of cefepime and 100 mg/kg of compound 15 by intravenous injection every 2 h, and the endpoint was 12 h: the 11th cage of mice were given 100 mg/kg of cefepime and 20 mg/kg of compound 15 by intravenous injection every 2 h, and the endpoint was 12 h; and the 12th cage of mice were given 100 mg/kg of cefepime and 4 mg/kg of compound 15 by intravenous injection every 2 h, and the endpoint was 12 h. At the endpoint, lung tissue was taken and placed in 10 mL of sterile physiological saline, the tissue was homogenized by a homogenizer, and the homogenate was diluted in a gradient and spotted in a plate, with two replicates for each mouse. The bacterial load in the lung tissue of the mice was counted, and the experiment was summarized as follows (see Table 7): […]

[6] = test system: Klebsiella pneumoniae ATCC BAA-1705; assay: Mouse thigh muscle infection model, bacterial load; assay type: in vivo, CD-1 female mice; conditions: endpoint 12 h
Method: as §5, §6
On day −1, the strain Klebsiella pneumoniae ATCC BAA-1705 was resuscitated on an MHA plate. Resuscitated colonies were picked and dissolved in sterile physiological saline to prepare a bacterial solution with a concentration of 5.6E+07 CFU/mL for thigh muscle infection in mice. The initial time of infection was denoted as 0 h, and 100 μL of the bacterial solution was injected into each mouse at the thigh muscle at 0 h, that is, the inoculation amount was 5.6E+06 CFU/mouse. 2 h after infection, dosing was performed according to the experimental scheme. The specific experimental scheme was as follows (see Table 4): • (1) 2 h after infection: for the 1st cage of mice, at the endpoint, thigh muscle tissue was taken and placed in 10 mL of sterile physiological saline, the tissue was homogenized by a homogenizer, and the homogenate was diluted in a gradient and spotted in a plate, with two replicates for each mouse. • (2) 2 h after infection: the 2nd to 12th cages were respectively treated at 10 mL/kg by volume according to the body weight of the mice, the 2nd cage of mice were given a vehicle by intravenous injection every 2 h, and the endpoint was 12 h; the 3rd cage of mice were given 100 mg/kg of meropenem by intravenous injection every 2 h, and the endpoint was 12 h; the 4th cage of mice were given 100 mg/kg of meropenem and 20 mg/kg of QPX7728 by intravenous injection every 2 h, and the endpoint was 12 h; the 5th cage of mice were given 100 mg/kg of meropenem and 100 mg/kg of compound 15 by intravenous injection every 2 h, and the endpoint was 12 h; the 6th cage of mice were given 100 mg/kg of meropenem and 20 mg/kg of compound 15 by intravenous injection every 2 h, and the endpoint was 12 h; the 7th cage of mice were given 100 mg/kg of meropenem and 4 mg/kg of compound 15 by intravenous injection every 2 h, and the endpoint was 12 h; the 8th cage of mice were given 100 mg/kg of cefepime by intravenous injection every 2 h, and the endpoint was 12 h; the 9th cage of mice were given 100 mg/kg of cefepime and 20 mg/kg of QPX7728 by intravenous injection every 2 h, and the endpoint was 12 h; the 10th cage of mice were given 100 mg/kg of cefepime and 100 mg/kg of compound 15 by intravenous injection every 2 h, and the endpoint was 12 h; the 11th cage of mice were given 100 mg/kg of cefepime and 20 mg/kg of compound 15 by intravenous injection every 2 h, and the endpoint was 12 h; and the 12th cage of mice were given 100 mg/kg of cefepime and 4 mg/kg of compound 15 by intravenous injection every 2 h, and the endpoint was 12 h. At the endpoint of 12 h, thigh muscle tissue was taken and placed in 10 mL of sterile physiological saline, the tissue was homogenized by a homogenizer, and the homogenate was diluted in a gradient and spotted in a plate, with two replicates for each mouse. The bacterial load in the thigh muscle tissue of the mice was counted, and the experiment was summarized as follows (see Table 5): […]

[7] = cefepime 100 mg/kg + inhibitor 20 mg/kg i.v. q2h
[8] = meropenem 100 mg/kg + inhibitor 20 mg/kg i.v. q2h

SMILES | MIC [1] | MIC [2] | MIC [3] | MIC [4] | Average CFU in mice (lung tissue) [5, 7] | Average CFU in mice (lung tissue) [5, 8] | Average CFU in mice (thigh muscle tissue) [6, 7] | Average CFU in mice (thigh muscle tissue) [6, 8]
CC1(C)Oc2ccc(F)c(C(=O)O)c2OB1O [Compound 1] | >20 µg/mL | >20 µg/mL | >20 µg/mL | 0.0625 µg/mL |  |  |  | 
COc1cc(Cl)c2c(c1C(=O)O)OB(O)CO2 [Compound 11] | 10 µg/mL | 2.5 µg/mL | 2.5 µg/mL | ≤0.03 µg/mL |  |  |  | 
O=C(O)c1c(F)c(F)cc2c1OB(O)CO2 [Compound 6] | 20 µg/mL | 10 µg/mL | 10 µg/mL | ≤0.03 µg/mL |  |  |  | 
CCCOc1ccc2c(c1C(=O)O)O[B-](O)(O)CO2 [Compound 29] | 5 µg/mL | 2.5 µg/mL | 1.25 µg/mL | 0.625 µg/mL |  |  |  | 
COc1c(Cl)c(Cl)c2c(c1C(=O)O)OB(O)CO2 [Compound 12] | 10 µg/mL | 5 µg/mL | 2.5 µg/mL | 0.06 µg/mL |  |  |  | 
O=C(O)c1c(F)ccc2c1OB(O)[C@@H]1C[C@H]21 [QPX7728, reference compound] |  |  |  |  | 2.68E+06 CFU/mouse | 8.42E+06 CFU/mouse | 1.50E+07 CFU/mouse | 1.02E+07 CFU/mouse
COB1Oc2c(ccc(F)c2C(=O)O)OC1(C)C [Compound 2] | >20 µg/mL | >20 µg/mL | >20 µg/mL | 20 µg/mL |  |  |  | 
O=C(O)c1c(Cl)ccc2c1OB(O)CO2 [Compound 5] | >20 µg/mL | 20 µg/mL | 10 µg/mL | ≤0.3125 µg/mL |  |  |  | 
COc1cc2c(c(C(=O)O)c1F)O[B-](O)(O)CO2 [Compound 16] | 10 µg/mL | 5 µg/mL | 5 µg/mL | 0.625 µg/mL |  |  |  | 
O=C(O)c1c(F)ccc2c1OB(O)CO2 [Compound 8] | 20 µg/mL | 20 µg/mL | 10 µg/mL | ≤0.3125 µg/mL |  |  |  | 

Further lines, with some results ahead:

MIC [1] | MIC [2] | MIC [3] | MIC [4] | SMILES | Average CFU in mice (lung tissue) [5, 7] | Average CFU in mice (lung tissue) [5, 8] | Average CFU in mice (thigh muscle tissue) [6, 7] | Average CFU in mice (thigh muscle tissue) [6, 8]
2.5 µg/mL | 2.5 µg/mL | 2.5 µg/mL | 1.25 µg/mL | O=C(O)c1c(OCC2CC2)ccc2c1O[B-](O)(O)CO2 [Compound 20] |  |  |  | 
20 µg/mL | 10 µg/mL | 10 µg/mL | ≤0.3125 µg/mL | Cc1ccc2c(c1C(=O)O)O[B-](O)(O)CO2 [Compound 17] |  |  |  | 
10 µg/mL | 5 µg/mL | 2.5 µg/mL | ≤0.03 µg/mL | O=C(O)c1cc(F)cc2c1OB(O)CO2 [Compound 10] |  |  |  | 
10 µg/mL | 5 µg/mL | 2.5 µg/mL | ≤0.3125 µg/mL | O=C(O)c1c2c(cc3c1O[B-](O)(O)CO3)CCCO2 [Compound 14] |  |  |  | 
>20 µg/mL | 20 µg/mL | 20 µg/mL | ≤0.03 µg/mL | O=C(O)c1ccc(Cl)c2c1OB(O)CO2 [Compound 7] |  |  |  | 
5 µg/mL | 1.25 µg/mL | 1.25 µg/mL | 0.625 µg/mL | O=C(O)c1c(OC2COC2)ccc2c1O[B-](O)(O)CO2 [Compound 23] |  |  |  | 
10 µg/mL | 2.5 µg/mL | 2.5 µg/mL | ≤0.03 µg/mL | O=C(O)c1c(F)cc(Cl)c2c1OB(O)CO2 [Compound 4] |  |  |  | 
5 µg/mL | 5 µg/mL | 2.5 µg/mL | ≤0.3125 µg/mL | COc1ccc2c(c1C(=O)O)OB(O)CO2 [Compound 3] |  |  |  | 
>20 µg/mL | >20 µg/mL | >20 µg/mL | ≤0.3125 µg/mL | COB1COc2ccc(F)c(C(=O)O)c2O1 [Compound 9] |  |  |  | 
